Measurements from paper PMC8041751, “Structural basis for an exceptionally strong preference for asparagine residue at the S2 subsite of Stenotrophomonas maltophilia dipeptidyl peptidase 7” (Scientific Reports, 2021).
Residues, ends and D or L forms follow the SMILES beside them.

What was measured:
wild-type SmDPP7 = assay: Kinetic parameters toward dipeptidyl MCA; assay type: biochemical, Stenotrophomonas maltophilia; settings: pH 7.0, 298 K
Protocol: (§1) Kinetic parameters were determined by fitting the experimental data to the Michaelis–Menten equation using Excel Solver (Microsoft, WA, US) by nonlinear least-squares fitting with different concentrations of glycyl-L-tyrosyl-4-methylcoumaryl-7-amide (3.91, 7.81, 15.6, 31.3, 62.5, 125, 250, and 500 µM; Gly-Tyr-MCA; GenScript, NJ, US), L-tyrosyl-L-tyrosyl-4-methylcoumaryl-7-amide (1.56, 3.13, 6.25, 12.5, 25, 50, 100, and 200 µM; Tyr-Tyr-MCA; GenScript, NJ, US), L-asparaginyl-L-tyrosyl-4-methylcoumaryl-7-amide (1.56, 3.13, 6.25, 12.5, 25, 50, 100, and 200 µM; Asn-Tyr-MCA; GenScript, NJ, US), and L-leucinyl-L-asparaginic acid-4-methylcoumaryl-7-amide (0.781, 1.56, 3.13, 6.25, 12.5, 25, 50, and 100 µM; Leu-Asp-MCA; Peptide Institute, Osaka, Japan) as a substrate. The enzyme reaction was performed in a reaction buffer consisting of 50 mM sodium phosphate buffer pH 7.0, 5 mM EDTA, and 0.005% Tween 20 at 298 K for 20 min and standard deviations were calculated from three independent experiments. […] For SmDPP7 (wild-type and mutants), concentrations of the purified enzymes were 10, 2, and 2 nM for the hydrolyses of Gly-Tyr-MCA, Tyr-Tyr-MCA, and Asn-Tyr-MCA, respectively. Concentration of purified PgDPP7 used for determining kinetic parameters of Tyr-Tyr-MCA hydrolysis was 25 nM. For SmDPP11 and PgDPP11, concentrations of the purified enzymes used for determining kinetic parameters of Leu-Asp-MCA hydrolysis were 0.5 nM and 1 nM, respectively. The fluorescence intensity of the released MCA was measured with excitation at 355 nm and emission at 460 nm using an Infinite 200 PRO microplate reader (Tecan, Switzerland).

SmDPP7 R218A mutant = assay: Kinetic parameters toward dipeptidyl MCA; assay type: biochemical, Stenotrophomonas maltophilia; parameters: key: “–” means not determined due to low activity
Protocol: (§2) To test the roles of the residues located in the S2 subsite for P2 residue recognition by SmDPP7, we replaced the following residues with alanine and analysed the enzymatic activities of the mutant enzymes on synthetic substrates, Gly-Tyr-MCA, Tyr-Tyr-MCA, and Asn-Tyr-MCA (Table 2). The mutated residues and their estimated roles were: Lys206, Arg218, Thr220, and Phe671 for interaction with the P2 side chain.
as §1

SmDPP7 R218Q mutant = assay: Kinetic parameters toward dipeptidyl MCA; assay type: biochemical, Stenotrophomonas maltophilia
SmDPP7 F671A mutant = assay: Kinetic parameters toward dipeptidyl MCA; assay type: biochemical, Stenotrophomonas maltophilia
Protocol: as §2, §1

SmDPP7 T220A mutant = assay: Kinetic parameters toward dipeptidyl MCA; assay type: biochemical, Stenotrophomonas maltophilia
Protocol: as §2, §1

SmDPP7 R218K mutant = assay: Kinetic parameters toward dipeptidyl MCA; assay type: biochemical, Stenotrophomonas maltophilia
Protocol: as §2, §1

SmDPP7 K206A mutant = assay: Kinetic parameters toward dipeptidyl MCA; assay type: biochemical, Stenotrophomonas maltophilia
Protocol: as §2, §1

PgDPP11 = PgDPP11 (Porphyromonas gingivalis, UniProt B2RID1); assay: biochemical
Sequence of PgDPP11 (B2RID1 22-720): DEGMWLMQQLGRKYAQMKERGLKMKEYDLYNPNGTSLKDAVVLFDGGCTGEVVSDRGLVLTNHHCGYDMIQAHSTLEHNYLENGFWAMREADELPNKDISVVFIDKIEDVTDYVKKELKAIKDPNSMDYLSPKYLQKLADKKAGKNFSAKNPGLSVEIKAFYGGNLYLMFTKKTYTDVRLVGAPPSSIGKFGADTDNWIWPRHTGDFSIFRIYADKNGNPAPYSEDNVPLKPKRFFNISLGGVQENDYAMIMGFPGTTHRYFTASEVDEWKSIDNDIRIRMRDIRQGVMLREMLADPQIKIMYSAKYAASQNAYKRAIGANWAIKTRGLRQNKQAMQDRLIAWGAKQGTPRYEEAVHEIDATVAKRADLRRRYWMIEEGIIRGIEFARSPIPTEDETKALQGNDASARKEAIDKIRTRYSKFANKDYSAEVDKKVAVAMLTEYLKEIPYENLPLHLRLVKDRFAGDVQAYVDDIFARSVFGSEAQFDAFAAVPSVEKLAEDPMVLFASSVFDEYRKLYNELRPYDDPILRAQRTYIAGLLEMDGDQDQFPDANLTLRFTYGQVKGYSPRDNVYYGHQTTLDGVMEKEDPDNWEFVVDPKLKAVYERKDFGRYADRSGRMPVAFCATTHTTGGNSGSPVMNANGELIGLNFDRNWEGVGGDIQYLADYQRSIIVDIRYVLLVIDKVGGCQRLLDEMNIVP
Protocol: Figure 2 Correlation diagrams between the hydrophobicity index (H.I.) of P2-amino acid and residual DPP activities of S46 peptidases. (a) SmDPP7. The outlier dipeptides Asn-Tyr and Trp-Tyr are coloured in red and blue, respectively (see text). (b) PgDPP7. Tyr-Tyr-MCA hydrolysis of PgDPP7 was inhibited by Xaa-Tyr dipeptide. Residual activity was measured under conditions where 200 µM dipeptides and 200 µM Tyr-Tyr-MCA were added into the reaction solution. (c) DPP11 from S. maltophilia (SmDPP11). (d) PgDPP11. For DPP11s, Leu-Asp-MCA hydrolysis was inhibited by Xaa-Asp dipeptide. Residual activity was measured under conditions where 100 µM dipeptides and 100 µM Leu-Asp-MCA were added into the reaction solution. The hydrophobicity indices of the amino acids were adopted from Sereda et al., 1994 and Mohera et al. 1995[25],[26]. R is the correlation coefficient. The standard deviations were obtained from three independent experiments.
(§3) The dipeptide library was purchased from AnaSpec (Fremont, CA, US). Ile-Tyr and Arg-Tyr were synthesized by Eurofins Genomics (Tokyo, Japan). Cys-Tyr and Cys-Asp could not be purchased commercially. Different concentrations (3.13, 6.25, 12.5, 25, 50, 100, and 200 µM) of dipeptides as the inhibitor and 200 µM Tyr-Tyr-MCA (GenScript, NJ, US) as the substrate for DPP7 were added into a reaction buffer consisting of 50 mM sodium phosphate buffer pH 7.0, 5 mM EDTA and 0.005% Tween 20. For DPP11s, different concentrations (1.56, 3.13, 6.25, 12.5, 25, 50, and 100 µM) of dipeptides as the inhibitor and 100 µM Leu-Asp-MCA (Peptide Institute, Osaka, Japan) as the substrate were used. The enzyme reaction was performed at 298 K for 20 min and standard deviations were calculated from three independent experiments. Half-maximal inhibitory concentration (IC50) values were determined by fitting to a sigmoid curve (4-parameter logistic curve) using ImageJ software[35] and inhibition constants (Ki) were calculated using the Cheng-Prusoff Equation[36]. The fluorescence intensity of the released MCA was measured with the same method of determination of kinetics parameters toward dipeptidyl MCA.

SmDPP7 = assay: Inhibition assay using dipeptide library, Tyr-Tyr-MCA hydrolysis; assay type: biochemical, Stenotrophomonas maltophilia; settings: Xaa-Tyr as competitive inhibitor; substrate 200 µM Tyr-Tyr-MCA; pH 7.0, 298 K; Ki from IC50 by Cheng-Prusoff
Protocol: Figure 1 Effect of Xaa-Tyr dipeptides on the hydrolytic activity of SmDPP7 towards synthetic substrate Tyr-Tyr-MCA. Inhibition assay was performed as described in “Materials and methods”. Residual activity was measured under conditions where 200 µM Xaa-Tyr dipeptide and 200 µM Tyr-Tyr-MCA, synthetic substrate were added into the reaction solution. […] The standard deviations were obtained from three independent experiments.
as §3

[1] = of the amino acid; ref 25,26 (Sereda et al. and Mohera et al.); cited from earlier work

Compound: L-tyrosyl-L-tyrosyl-4-methylcoumaryl-7-amide [Tyr-Tyr-MCA]
- Km (wild-type SmDPP7): 81.7 ± 3.4 µM
- kcat (wild-type SmDPP7): 3.83 ± 0.09 s⁻¹
- Km (SmDPP7 R218A mutant): –
- kcat (SmDPP7 R218A mutant): –
- kcat/Km (SmDPP7 R218A mutant): –
- Km (SmDPP7 R218Q mutant): 275 ± 11 µM
- kcat (SmDPP7 R218Q mutant): 0.0403 ± 0.0004 s⁻¹
- Km (SmDPP7 F671A mutant): 463 ± 88 µM
- kcat (SmDPP7 F671A mutant): 1.54 ± 0.18 s⁻¹
- Km (SmDPP7 T220A mutant): 46.4 ± 2.4 µM
- kcat (SmDPP7 T220A mutant): 1.82 ± 0.07 s⁻¹
- Km (SmDPP7 R218K mutant): 251 ± 6 µM
- kcat (SmDPP7 R218K mutant): 0.240 ± 0.003 s⁻¹
- Km (SmDPP7 K206A mutant): 55.8 ± 1.5 µM
- kcat (SmDPP7 K206A mutant): 3.52 ± 0.04 s⁻¹

Compound: NC(=O)C[C@H](N)C(=O)N[C@@H](CC(=O)O)C(=O)O [Asn-Asp] (H-Asn-Asp-OH)
- Ki (PgDPP11): 4.06 ± 0.16 µM

Compound: Ser-Tyr
- Ki (SmDPP7): > 58 µM

Compound: N[C@@H](Cc1ccccc1)C(=O)O [Phe]
- H.I. of P2 aa (hydrophobicity index) [1]: 100

Compound: Ala-Tyr
- Ki (SmDPP7): > 58 µM

Compound: N[C@@H](Cc1c[nH]cn1)C(=O)N[C@@H](CC(=O)O)C(=O)O [His-Asp] (H-His-Asp-OH)
- Ki (PgDPP11): > 5.11 µM

Compound: N[C@@H](CO)C(=O)N[C@@H](CC(=O)O)C(=O)O [Ser-Asp] (H-Ser-Asp-OH)
- Ki (PgDPP11): > 5.11 µM

Compound: N[C@@H](Cc1ccc(O)cc1)C(=O)O [Tyr]
- H.I. of P2 aa (hydrophobicity index) [1]: 63

Compound: N[C@@H](Cc1c[nH]c2ccccc12)C(=O)O [Trp]
- H.I. of P2 aa (hydrophobicity index) [1]: 97

Compound: O=C(O)C[C@H](NC(=O)[C@@H]1CCCN1)C(=O)O [Pro-Asp] (H-Pro-Asp-OH)
- Ki (PgDPP11): > 5.11 µM

Compound: CC[C@H](C)[C@H](N)C(=O)O [Ile]
- H.I. of P2 aa (hydrophobicity index) [1]: 99

Compound: N[C@@H](Cc1c[nH]c2ccccc12)C(=O)N[C@@H](CC(=O)O)C(=O)O [Trp-Asp] (H-Trp-Asp-OH)
- Ki (PgDPP11): 1.36 ± 0.06 µM

Compound: Glu-Tyr
- Ki (SmDPP7): > 58 µM

Compound: CC(C)[C@H](N)C(=O)O [Val]
- H.I. of P2 aa (hydrophobicity index) [1]: 76

Compound: C[C@H](N)C(=O)N[C@@H](CC(=O)O)C(=O)O [Ala-Asp] (H-Ala-Asp-OH)
- Ki (PgDPP11): > 5.11 µM

Compound: CSCC[C@H](N)C(=O)N[C@@H](CC(=O)O)C(=O)O [Met-Asp] (H-Met-Asp-OH)
- Ki (PgDPP11): > 5.11 µM

Compound: CC(C)C[C@H](N)C(=O)N[C@@H](CC(=O)O)C(=O)O [Leu-Asp] (H-Leu-Asp-OH)
- Ki (PgDPP11): 3.35 ± 0.23 µM

Compound: Asp-Tyr
- Ki (SmDPP7): > 58 µM

Compound: Gly-Tyr
- Ki (SmDPP7): > 58 µM

Compound: L-asparaginyl-L-tyrosyl-4-methylcoumaryl-7-amide [Asn-Tyr-MCA]
- Km (wild-type SmDPP7): 51.3 ± 1.6 µM
- kcat (wild-type SmDPP7): 3.67 ± 0.12 s⁻¹
- Km (SmDPP7 R218A mutant): –
- kcat (SmDPP7 R218A mutant): –
- kcat/Km (SmDPP7 R218A mutant): –
- Km (SmDPP7 R218Q mutant): 390 ± 14 µM
- kcat (SmDPP7 R218Q mutant): 0.198 ± 0.006 s⁻¹
- Km (SmDPP7 F671A mutant): 17.4 ± 1.4 µM
- kcat (SmDPP7 F671A mutant): 0.230 ± 0.012 s⁻¹
- Km (SmDPP7 T220A mutant): 66.6 ± 1.5 µM
- kcat (SmDPP7 T220A mutant): 2.60 ± 0.04 s⁻¹
- Km (SmDPP7 R218K mutant): 277 ± 6 µM
- kcat (SmDPP7 R218K mutant): 0.183 ± 0.008 s⁻¹
- Km (SmDPP7 K206A mutant): 54.1 ± 2.1 µM
- kcat (SmDPP7 K206A mutant): 3.47 ± 0.02 s⁻¹

Compound: NCCCC[C@H](N)C(=O)N[C@@H](CC(=O)O)C(=O)O [Lys-Asp] (H-Lys-Asp-OH)
- Ki (PgDPP11): > 5.11 µM

Compound: N[C@@H](CCC(=O)O)C(=O)N[C@@H](CC(=O)O)C(=O)O [Glu-Asp] (H-Glu-Asp-OH)
- Ki (PgDPP11): > 5.11 µM

Compound: NC(=O)CC[C@H](N)C(=O)N[C@@H](CC(=O)O)C(=O)O [Gln-Asp] (H-Gln-Asp-OH)
- Ki (PgDPP11): > 5.11 µM

Compound: N=C(N)NCCC[C@H](N)C(=O)N[C@@H](CC(=O)O)C(=O)O [Arg-Asp] (H-Arg-Asp-OH)
- Ki (PgDPP11): > 5.11 µM

Compound: N[C@@H](CC(=O)O)C(=O)N[C@@H](CC(=O)O)C(=O)O [Asp-Asp] (H-Asp-Asp-OH)
- Ki (PgDPP11): > 5.11 µM

Compound: C[C@@H](O)[C@H](N)C(=O)N[C@@H](CC(=O)O)C(=O)O [Thr-Asp] (H-Thr-Asp-OH)
- Ki (PgDPP11): > 5.11 µM

Compound: C[C@H](N)C(=O)O [Ala]
- H.I. of P2 aa (hydrophobicity index) [1]: 41

Compound: CC(C)[C@H](N)C(=O)N[C@@H](CC(=O)O)C(=O)O [Val-Asp]
- Ki (PgDPP11): > 5.11 µM

Compound: N[C@@H](Cc1ccccc1)C(=O)N[C@@H](CC(=O)O)C(=O)O [Phe-Asp] (H-Phe-Asp-OH)
- Ki (PgDPP11): 5.11 ± 0.06 µM

Compound: NCC(=O)N[C@@H](CC(=O)O)C(=O)O [Gly-Asp] (H-Gly-Asp-OH)
- Ki (PgDPP11): > 5.11 µM

Compound: His-Tyr
- Ki (SmDPP7): > 58 µM

Compound: glycyl-L-tyrosyl-4-methylcoumaryl-7-amide [Gly-Tyr-MCA]
- Km (wild-type SmDPP7): 183 ± 4 µM
- kcat (wild-type SmDPP7): 0.702 ± 0.022 s⁻¹
- Km (SmDPP7 R218A mutant): –
- kcat (SmDPP7 R218A mutant): –
- kcat/Km (SmDPP7 R218A mutant): –
- Km (SmDPP7 R218Q mutant): 717 ± 63 µM
- kcat (SmDPP7 R218Q mutant): 0.0365 ± 0.0018 s⁻¹
- Km (SmDPP7 F671A mutant): 688 ± 38 µM
- kcat (SmDPP7 F671A mutant): 0.191 ± 0.009 s⁻¹
- Km (SmDPP7 T220A mutant): 215 ± 10 µM
- kcat (SmDPP7 T220A mutant): 0.454 ± 0.010 s⁻¹
- Km (SmDPP7 R218K mutant): 586 ± 40 µM
- kcat (SmDPP7 R218K mutant): 0.0238 ± 0.0011 s⁻¹
- Km (SmDPP7 K206A mutant): 201 ± 10 µM
- kcat (SmDPP7 K206A mutant): 0.751 ± 0.015 s⁻¹

Compound: CC[C@H](C)[C@H](N)C(=O)N[C@@H](CC(=O)O)C(=O)O [Ile-Asp] (H-Ile-Asp-OH)
- Ki (PgDPP11): > 5.11 µM

Compound: N[C@@H](Cc1ccc(O)cc1)C(=O)N[C@@H](CC(=O)O)C(=O)O [Tyr-Asp] (H-Tyr-Asp-OH)
- Ki (PgDPP11): > 5.11 µM

Compound: CSCC[C@H](N)C(=O)O [Met]
- H.I. of P2 aa (hydrophobicity index) [1]: 74

Compound: Pro-Tyr
- Ki (SmDPP7): > 58 µM

Compound: N[C@@H](Cc1c[nH]cn1)C(=O)O [His]
- H.I. of P2 aa (hydrophobicity index) [1]: 8
